The values that follow come from PubChem BioAssay AID1259408 (Genetic Toxicology Data Bank (GENE-TOX), 2018).

Calls of active or inactive are those of the source. No rule for the calls is given here.

In the series the test system is GENE-TOX genotoxicity assays, various organisms and cells. Put plainly: GENE-TOX mutagenicity studies. The conditions noted are these: for call: Assay Type: In vivo carcinogenicity studies.
[1] abbreviates: Species/Cell Type: Human lymphocytes, Assay Type: Sister-chromatid exchange (SCE) in vitro, Assay Code: SCLT, Evaluation Type: Evaluation B (Post-1980).
Setting [2] is: Species/Cell Type: Human, Assay Type: Sister-chromatid exchange (SCE) in vitro, Assay Code: SC1T, Evaluation Type: Evaluation B (Post-1980).
Where [3] appears, read: Species/Cell Type: Salmonella typhimurium (one or more of the five standard strains: TA98, TA100, TA1535, TA1537, and TA1538), Assay Type: Histidine reverse gene mutation, Ames assay, Assay Code: SAL+, Evaluation Type: Evaluation A (Pre-1980).
Setting [4] is: Species/Cell Type: Escherichia coli polA (W3119 vs P3478), Assay Type: Rec-assay, DNA effects (bacterial DNA repair), Assay Code: RE1T, Evaluation Type: Evaluation A (Pre-1980).
[5] abbreviates: Species/Cell Type: Mouse, Sex: Male, Assay Type: Sperm morphology, Assay Code: SPI-, Evaluation Type: Evaluation A (Pre-1980).
Setting [6] is: Species/Cell Type: Drosophila melanogaster, Assay Type: Sex-linked recessive lethal gene mutation, Assay Code: SRLT, Evaluation Type: Evaluation A (Pre-1980).
[7] abbreviates: Species/Cell Type: Bacillus subtilis (H17 vs M45), Assay Type: Rec-assay, spot test, DNA effects (bacterial DNA repair), Assay Code: REW-, Evaluation Type: Evaluation A (Pre-1980).
Setting [8] is: Species/Cell Type: Saccharomyces cerevisiae, Assay Type: Mitotic recombination or gene conversion, Assay Code: YEH-, Evaluation Type: Evaluation A (Pre-1980).
The mark [9] stands for this setting: Species/Cell Type: Salmonella typhimurium (one or more of the five standard strains: TA98, TA100, TA1535, TA1537, and TA1538), Assay Type: Histidine reverse gene mutation, Ames assay, Assay Code: SALT, Evaluation Type: Evaluation A (Pre-1980).
Where [10] appears, read: Species/Cell Type: Mammalian polychromatic erythrocytes, Assay Type: Micronucleus test, chromosome aberrations, Assay Code: MNTT, Evaluation Type: Evaluation A (Pre-1980).
Setting [11] is: Species/Cell Type: Escherichia coli polA (W3119 vs P3478), Assay Type: Rec-assay, DNA effects (bacterial DNA repair), Assay Code: RE1+, Evaluation Type: Evaluation A (Pre-1980).

On to `Cn1cnc([N+](=O)[O-])c1Sc1ncnc2nc[nH]c12`, for which the mutagenic call was “active; positive” (Species/Cell Type: Drosophila melanogaster, Assay Type: Aneuploidy, partial sex chromosome loss, chromosome aberrations, Assay Code: DAP+M, Evaluation Type: Evaluation A (Pre-1980)); “active; positive” (Species/Cell Type: Drosophila melanogaster, Assay Type: Aneuploidy, sex chromosome gain, chromosome aberrations, Assay Code: DAG+M, Evaluation Type: Evaluation A (Pre-1980)); “no conclusion” (Species/Cell Type: Drosophila melanogaster, Assay Type: Aneuploidy, whole sex chromosome loss, chromosome aberrations, Assay Code: DACT, Evaluation Type: Evaluation A (Pre-1980)); “no conclusion” under setting [1]; “active; positive” (Species/Cell Type: Human lymphocytes, Assay Type: Sister-chromatid exchange (SCE) in vivo, Assay Code: SCY+, Evaluation Type: Evaluation B (Post-1980)); “no conclusion” under setting [2]. Moreover, the mutagenic call by setting is: (Species/Cell Type: Mammalian polychromatic erythrocytes, Assay Type: Micronucleus test, chromosome aberrations, Assay Code: MNT+, Evaluation Type: Evaluation A (Pre-1980)) “active; positive”; (Species/Cell Type: Mouse, Sex: Male, Assay Type: Sperm morphology, Assay Code: SPI+, Evaluation Type: Evaluation A (Pre-1980)) “active; positive”; (Species/Cell Type: Neurospora crassa, Assay Type: Forward and reverse gene mutation, lethal mutation, host-mediated assay, Assay Code: HMD+, Evaluation Type: Evaluation A (Pre-1980)) “active; positive”; (Species/Cell Type: Neurospora crassa, Assay Type: Forward gene mutation, Assay Code: NEF+, Evaluation Type: Evaluation A (Pre-1980)) “active; positive”; (Species/Cell Type: Nonhuman, Assay Type: Sister-chromatid exchange (SCE) in vivo, Assay Code: SC3-, Evaluation Type: Evaluation B (Post-1980)) “inactive; negative”; (Species/Cell Type: Rodents, Sex: Male, Assay Type: Dominant lethal test, Assay Code: DLTT, Evaluation Type: Evaluation A (Pre-1980)) “no conclusion”. Also, under setting [3], the mutagenic call was “active; positive”. For the same molecule, the call (Species/Cell Type: Nonhuman, Assay Code: CCG+L, Evaluation Type: Evaluation A (Pre-1980)) was “active; positive”.

`Cc1ncc(COP(=O)(O)O)c(C=O)c1O`: the mutagenic call is given as “no conclusion” under setting [1] and “no conclusion” under setting [2].

As for `NC(N)=O`, the mutagenic call by setting is: (Species/Cell Type: Allium cepa, Assay Type: Chromosome aberrations, Assay Code: ALC+D, Dose Response: With dose response, Evaluation Type: Evaluation A (Pre-1980)) “active; positive”; under setting [4], “no conclusion”; (Species/Cell Type: Glycine max (soybean), Assay Type: Gene mutation, Assay Code: GLM-, Evaluation Type: Evaluation A (Pre-1980)) “inactive; negative”; (Species/Cell Type: Human lymphocytes or leukocytes, Assay Type: Chromosome aberrations in vitro, Assay Code: CY7+, Evaluation Type: Evaluation A (Pre-1980)) “active; positive”; under setting [5], “inactive; negative”; (Species/Cell Type: Plant, Assay Type: Micronucleus test, chromosome aberrations, Assay Code: MNP+, Evaluation Type: Evaluation A (Pre-1980)) “active; positive”.

On to `O=NN1CCCCC1C(=O)O` (stereo not given), for which the mutagenic call under setting [6] was “no conclusion”.

`Oc1cc2c3ccccc3cc3ccc4cccc1c4c32`: the mutagenic call runs as follows: (Species/Cell Type: Chinese hamster lung (V79) cells, Assay Type: Forward gene mutation at the HPRT or ouabain locus, Assay Code: V79-, Evaluation Type: Evaluation A (Pre-1980)) “inactive; negative”; under setting [3], “active; positive”. Moreover, for the setting “Species/Cell Type: Nonhuman, Assay Code: CCGT, Evaluation Type: Evaluation A (Pre-1980)”, the call is on record as “no conclusion”.

For the molecule `[Be+2]`, the mutagenic call under setting [7] is “inactive; negative”.

Regarding `NC[C@H]1O[C@H](O[C@H]2[C@H](O)[C@@H](O[C@H]3O[C@H](CO)[C@@H](O)[C@H](N)[C@H]3O)[C@H](N)C[C@@H]2N)[C@H](N)C[C@@H]1O`, under setting [8], the mutagenic call is “inactive; negative”.

As to `COc1cc2c3cc1Oc1cc(ccc1O)C[C@@H]1c4c(cc(OC)c(O)c4Oc4ccc(cc4)C[C@@H]3N(C)CC2)CC[N+]1(C)C`, the mutagenic call reads like this: under setting [4], “no conclusion”; under setting [9], “no conclusion”.

As for `Clc1cccc(-c2ccc(Cl)c(Cl)c2Cl)c1Cl`, the mutagenic call under setting [10] is recorded as “no conclusion”; the mutagenic call under setting [5] was “inactive; negative”; the mutagenic call (Species/Cell Type: Rodents, Sex: Male, Assay Type: Dominant lethal test, Assay Code: DLT-, Evaluation Type: Evaluation A (Pre-1980)) is “inactive; negative”; the mutagenic call (Species/Cell Type: Syrian hamster embryo (SHE) cells, Assay Type: Cell transformation, clonal assay, Assay Code: CTC-, Evaluation Type: Evaluation A (Pre-1980)) was “inactive; negative”.

Take `OCC1=CCN2CC[C@H](O)[C@@H]12`: the mutagenic call under setting [6] is “no conclusion”.

With `CC(=O)Oc1ccccc1C(=O)O`, the mutagenic call runs as follows: under setting [10], “no conclusion”; under setting [5], “inactive; negative”.

For the molecule `C/C(=C(\CCOC(=O)c1ccccc1)SC(=O)c1ccccc1)N(C=O)Cc1cnc(C)nc1N`, the mutagenic call is “inactive; negative” under setting [7]; “inactive; negative” (Species/Cell Type: Escherichia coli WP2, Assay Type: Tryptophan reverse gene mutation, Assay Code: WP2-*, Activation: With metabolic activation, Evaluation Type: Evaluation A (Pre-1980)); “inactive; negative” (Species/Cell Type: Escherichia coli WP2 UVRA, Assay Type: Tryptophan reverse gene mutation, Assay Code: WPU-*, Activation: With metabolic activation, Evaluation Type: Evaluation A (Pre-1980)).

Take `CC(=O)Nc1nc(-c2cc([N+](=O)[O-])c[nH]2)cs1`: under setting [9], the mutagenic call is recorded as “no conclusion”.

For `Nc1ccccc1O`, the mutagenic call (Species/Cell Type: Human, Assay Type: Sister-chromatid exchange (SCE) in vitro, Assay Code: SC1+D, Dose Response: With dose response, Evaluation Type: Evaluation B (Post-1980)) is “active; positive”.

As to `N#CN(CCCC(NC(=O)c1ccccc1)C(N)=O)N=O` (stereo not given), the mutagenic call under setting [11] was “active; positive”.

Take `NC[C@H]1O[C@H](O[C@H]2[C@H](O)[C@@H](O[C@H]3O[C@H](CO)[C@@H](O)[C@H](N)[C@H]3O)[C@H](N)C[C@@H]2N)[C@H](O)[C@@H](O)[C@@H]1O`: the mutagenic call is “no conclusion” (Species/Cell Type: Bacillus subtilis (H17 vs M45T), Assay Type: Rec-assay, spot test, DNA effects (bacterial DNA repair), Assay Code: REXT, Evaluation Type: Evaluation A (Pre-1980)); “inactive; negative” (Species/Cell Type: Escherichia coli polA (W3119 vs P3478), Assay Type: Rec-assay, DNA effects (bacterial DNA repair), Assay Code: RE1-, Evaluation Type: Evaluation A (Pre-1980)); “inactive; negative” under setting [8].

In the case of `Cc1ccc2ccc3cc4ccccc4cc3c2c1`, the mutagenic call (Species/Cell Type: Nonhuman, Assay Type: Sister-chromatid exchange (SCE) in vitro, Assay Code: SC2+D, Dose Response: With dose response, Evaluation Type: Evaluation B (Post-1980)) was “active; positive”; the mutagenic call (Species/Cell Type: Salmonella typhimurium (one or more of the five standard strains: TA98, TA100, TA1535, TA1537, and TA1538), Assay Type: Histidine reverse gene mutation, Ames assay, Assay Code: SAL+*, Activation: With metabolic activation, Evaluation Type: Evaluation A (Pre-1980)) was “active; positive”.

Consider `CCN(CC)CCCC(C)Nc1ccnc2cc(Cl)ccc12` (stereo not given), for which the mutagenic call by setting is: under setting [11], “active; positive”; (Species/Cell Type: Mammalian cell culture, nonhuman, Assay Type: Micronucleus test in vitro, chromosome aberrations, Assay Code: MN&+, Evaluation Type: Evaluation A (Pre-1980)) “active; positive”.
